What was measured:
Assay type in all cases: in vivo
IPOMOEA SPP. = assay: Postemergence herbicidal evaluation, IPOSS (Morningglory spp.); conditions: for IPOSS, herbicide rating (0-9): rated four to five weeks after treatment, averaged
Summary of the method: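 Seedlings of morningglory (Ipomoea spp.) were raised in jiffy flats for roughly two weeks. They were then sprayed postemergence through a nozzle at 40 psi with test compound dispersed in 50/50 acetone/water containing 0.5% TWEEN®20 surfactant. Plants were kept on greenhouse benches under standard care and visually rated 0-9 against controls four to five weeks after treatment.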

[1] = tested on: AMBROSIA ARTEMISIIFOLIA, L.; assay: Postemergence herbicidal evaluation, AMBEL (Ragweed, Common); conditions: for AMBEL, herbicide rating (0-9): rated four to five weeks after treatment, averaged
Summary of the method: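 Common ragweed (Ambrosia artemisiifolia) seedlings were raised in jiffy flats for roughly two weeks, then sprayed postemergence through a nozzle at 40 psi with the test compound dispersed in 50/50 acetone/water carrying 0.5% TWEEN®20. The plants were kept on greenhouse benches under conventional care. Four to five weeks later, injury was rated visually on a 0-9 scale, and repeat tests were averaged.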

[2] = tested on: ORYZA SATIVA, L. TEBONNET; assay: Rice tolerance to post-transplant applications under flooded paddy conditions, ORYSAT (Rice, Tebonnet); conditions: for ORYSAT herbicidal rating (rice tolerance): post-transplant rice, rated three to four weeks after treatment; for ORYSAT: post-transplanted rice;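 on ORYSAT herbicidal rating (rice tolerance): applied to flooded soil surface three days after transplanting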
Summary of the method: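 Two ten-day-old Tebonnet rice seedlings were transplanted into silt loam and kept flooded 1.5 to 3 cm deep. Three days after transplanting, the flood surface received the compound in aqueous/acetone 50/50 v/v at about 0.5, 0.25, 0.125 or 0.063 kg/ha. Injury was rated visually on a 0-9 scale versus control after 3-4 weeks.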

CHENOPODIUM ALBUM, L. [3] = assay: Postemergence herbicidal evaluation, CHEAL (Lambsquarters, Common); conditions: for CHEAL, herbicide rating (0-9): rated four to five weeks after treatment, averaged
Summary of the method: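 Seedlings of common lambsquarters (Chenopodium album) were raised in jiffy flats for roughly two weeks, then sprayed postemergence through a nozzle at 40 psi with test compound dispersed in 50/50 acetone/water containing 0.5% TWEEN®20 surfactant. Plants were kept on greenhouse benches under standard care and rated visually on a 0-9 scale versus controls.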

CHENOPODIUM ALBUM, L. [4] = assay: Preemergence herbicidal evaluation, CHEAL (Lambsquarters, Common); conditions: four to five weeks after treatment
Summary of the method: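 First, seeds in potting soil are sown atop soil in cups. Next, the surface is sprayed with test compound in aqueous acetone at roughly 0.125 to 0.50 kg per hectare. After four to five weeks of greenhouse care, each cup is scored 0-9 against a control.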

[5] = tested on: ABUTILON THEOPHRASTI, MEDIC.; assay: Postemergence herbicidal evaluation, ABUTH (Velvetleaf); conditions: for ABUTH, herbicide rating (0-9): rated four to five weeks after treatment, averaged
Summary of the method: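 Velvetleaf (Abutilon theophrasti) seedlings were raised in jiffy flats for about two weeks and then sprayed postemergence. The test compound was dispersed in a 50/50 acetone/water mixture containing 0.5% TWEEN®20 and applied through a nozzle operating at 40 psi. Plants were kept on greenhouse benches and rated 0-9 four to five weeks after treatment.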

[6] = tested on: TRITICUM AESTIVUM, CV. APOLLO; assay: Postemergence herbicidal evaluation, TRZAWO (Wheat, Winter, CV. APOLLO)
Description: In the tests, seedling plants are grown in jiffy flats for about two weeks. The test compounds are dispersed in 50/50 acetone/water mixtures containing 0.5% TWEEN®20, a polyoxyethylene sorbitan monolaurate surfactant of Atlas Chemical Industries, […] through a spray nozzle operating at 40 psi for a predetermined time. After spraying, the plants are placed on greenhouse benches and are cared for in the usual manner, commensurate with conventional greenhouse practices. From four to five weeks after treatment, the seedling plants are examined and rated according to the rating system set forth below. Where more than one test is involved for a given compound, the data are averaged.
(§1) Plant species employed in these evaluations are reported by header abbreviation, common name and scientific name.
(§2) Results of herbicide evaluation are expressed on a rating scale (0-9). The scale is based upon a visual observation of plant stand, vigor, malformation, size, chlorosis and overall plant appearance as compared with a control.

GALIUM APARINE = assay: Postemergence herbicidal evaluation, GALAP (Galium); design: key to GALAP rating / Herbicidal effect rating, GALAP / GALAP: 0-9 visual rating scale vs untreated control
Summary of the method: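 Galium (GALAP) seedlings were raised in jiffy flats for about two weeks, then sprayed with test compounds dispersed in 50/50 acetone/water containing 0.5% TWEEN®20, delivered through a nozzle at 40 psi. Plants were kept on greenhouse benches and visually rated 0-9 against a control four to five weeks later; repeat tests were averaged.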

CASSIA OBTUSIFOLIA, L. = assay: Postemergence herbicidal evaluation, CASOB (Sicklepod); design: key to CASOB rating / Herbicidal effect rating, CASOB / CASOB: 0-9 visual rating scale vs untreated control
Summary of the method: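 Seedlings about two weeks old were sprayed with compound in 50/50 acetone/water containing 0.5% Tween 20 at about 0.125-0.500 kg/ha and kept in the greenhouse. Visual injury was rated on a 0-9 scale versus control 4-5 weeks after treatment; repeat tests were averaged.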

[7] = tested on: ECHINOCHLOA CRUS-GALLI, (L) BEAU; assay: Postemergence herbicidal evaluation, ECHCG (Barnyardgrass); design: key to ECHCG rating / Herbicidal effect rating, ECHCG / ECHCG: 0-9 visual rating scale vs untreated control
Summary of the method: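 Visual 0–9 scores reflect stand, vigor, malformation, size, chlorosis and overall appearance relative to control, taken 4–5 weeks after spraying two-week-old seedlings with about 0.125–0.500 kg/ha compound in acetone/water/TWEEN 20.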

ZEA MAYS L. = assay: Postemergence herbicidal evaluation, ZEAMX (Corn, Field)
Description: In the tests, seedling plants are grown in jiffy flats for about two weeks. The test compounds are dispersed in 50/50 acetone/water mixtures containing 0.5% TWEEN®20, a polyoxyethylene sorbitan monolaurate surfactant of Atlas Chemical Industries, […] to the plants through a spray nozzle operating at 40 psi for a predetermined time. After spraying, the plants are placed on greenhouse benches and are cared for in the usual manner, commensurate with conventional greenhouse practices. From four to five weeks after treatment, the seedling plants are examined and rated according to the rating system set forth below. Where more than one test is involved for a given compound, the data are averaged.
as §1, §2

SMILES: COC(=O)Cn1c(=O)[nH]c(=O)n(-c2cc(Oc3ccc(C(F)(F)F)cc3Cl)ccc2[N+](=O)[O-])c1=O [Compound 8, Methyl 3-{5-[(2-chloro-α,α,α-trifluoro-p-tolyl)oxy]-2-nitrophenyl}tetrahydro-2,4,6-trioxo-s-triazine-1(2H)-acetate]
- IPOSS, herbicide rating (0-9) (IPOMOEA SPP.; Rate 0.125 kg/ha): 9.0
- IPOSS, herbicide rating (0-9) (IPOMOEA SPP.; Rate 0.250 kg/ha): 9.0
- IPOSS, herbicide rating (0-9) (IPOMOEA SPP.; Rate 0.500 kg/ha): 9.0
- AMBEL, herbicide rating (0-9) ([1]; Rate 0.125 kg/ha): 9.0
- AMBEL, herbicide rating (0-9) ([1]; Rate 0.250 kg/ha): 9.0
- AMBEL, herbicide rating (0-9) ([1]; Rate 0.500 kg/ha): 9.0
- ORYSAT herbicidal rating (rice tolerance) ([2]; Rate 0.063 kg/ha): 0.0
- ORYSAT herbicidal rating (rice tolerance) ([2]; Rate 0.125 kg/ha): 0.0
- ORYSAT herbicidal rating (rice tolerance) ([2]; Rate 0.250 kg/ha): 1.0
- ORYSAT herbicidal rating (rice tolerance) ([2]; Rate 0.500 kg/ha): 2.0
- CHEAL, herbicide rating (0-9) (CHENOPODIUM ALBUM, L. [3]; Rate 0.125 kg/ha): 9.0
- CHEAL, herbicide rating (0-9) (CHENOPODIUM ALBUM, L. [3]; Rate 0.250 kg/ha): 9.0
- CHEAL, herbicide rating (0-9) (CHENOPODIUM ALBUM, L. [3]; Rate 0.500 kg/ha): 9.0
- CHEAL rating (CHENOPODIUM ALBUM, L. [4]; Rate 0.125 kg/ha): 9.0
- CHEAL rating (CHENOPODIUM ALBUM, L. [4]; Rate 0.250 kg/ha): 9.0
- CHEAL rating (CHENOPODIUM ALBUM, L. [4]; Rate 0.500 kg/ha): 9.0
- ABUTH, herbicide rating (0-9) ([5]; Rate 0.125 kg/ha): 9.0
- ABUTH, herbicide rating (0-9) ([5]; Rate 0.250 kg/ha): 9.0
- ABUTH, herbicide rating (0-9) ([5]; Rate 0.500 kg/ha): 9.0

SMILES: Cn1c(=O)[nH]c(=O)n(-c2cc(Oc3c(F)cc(C(F)(F)F)cc3Cl)ccc2F)c1=O [C, reference compound]
- Herbicidal effect rating, TRZAWO ([6]; 0.031 kg/ha): 3.5
- Herbicidal effect rating, TRZAWO ([6]; 0.063 kg/ha): 4.0
- Herbicidal effect rating, TRZAWO ([6]; 0.125 kg/ha): 4.5
- Herbicidal effect rating, TRZAWO ([6]; 0.250 kg/ha): 4.5
- Herbicidal effect rating, IPOSS (IPOMOEA SPP.; 0.031 kg/ha): 4.0
- Herbicidal effect rating, IPOSS (IPOMOEA SPP.; 0.063 kg/ha): 5.0
- Herbicidal effect rating, IPOSS (IPOMOEA SPP.; 0.125 kg/ha): 6.0
- Herbicidal effect rating, IPOSS (IPOMOEA SPP.; 0.250 kg/ha): 9.0
- Herbicidal effect rating, AMBEL ([1]; 0.031 kg/ha): 1.0
- Herbicidal effect rating, AMBEL ([1]; 0.063 kg/ha): 3.0
- Herbicidal effect rating, AMBEL ([1]; 0.125 kg/ha): 4.0
- Herbicidal effect rating, AMBEL ([1]; 0.250 kg/ha): 6.0
- ORYSAT ([2]; Rate 0.031 kg/ha): 1.0
- ORYSAT ([2]; Rate 0.063 kg/ha): 1.0
- ORYSAT ([2]; Rate 0.125 kg/ha): 3.0
- ORYSAT ([2]; Rate 0.250 kg/ha): 5.0
- Herbicidal effect rating, GALAP (GALIUM APARINE; 0.031 kg/ha): 2.0
- Herbicidal effect rating, GALAP (GALIUM APARINE; 0.063 kg/ha): 6.0
- Herbicidal effect rating, GALAP (GALIUM APARINE; 0.125 kg/ha): 7.0
- Herbicidal effect rating, GALAP (GALIUM APARINE; 0.250 kg/ha): 7.0
- Herbicidal effect rating, CHEAL (CHENOPODIUM ALBUM, L. [3]; 0.031 kg/ha): 3.0
- Herbicidal effect rating, CHEAL (CHENOPODIUM ALBUM, L. [3]; 0.063 kg/ha): 4.0
- Herbicidal effect rating, CHEAL (CHENOPODIUM ALBUM, L. [3]; 0.125 kg/ha): 7.0
- Herbicidal effect rating, CHEAL (CHENOPODIUM ALBUM, L. [3]; 0.250 kg/ha): 7.0
- Herbicidal effect rating, CASOB (CASSIA OBTUSIFOLIA, L.; 0.031 kg/ha): 2.0
- Herbicidal effect rating, CASOB (CASSIA OBTUSIFOLIA, L.; 0.063 kg/ha): 4.0
- Herbicidal effect rating, CASOB (CASSIA OBTUSIFOLIA, L.; 0.125 kg/ha): 4.0
- Herbicidal effect rating, CASOB (CASSIA OBTUSIFOLIA, L.; 0.250 kg/ha): 6.0
- Herbicidal effect rating, ABUTH ([5]; 0.031 kg/ha): 2.0
- Herbicidal effect rating, ABUTH ([5]; 0.063 kg/ha): 4.0
- Herbicidal effect rating, ABUTH ([5]; 0.125 kg/ha): 7.0
- Herbicidal effect rating, ABUTH ([5]; 0.250 kg/ha): 7.0
- Herbicidal effect rating, ECHCG ([7]; 0.031 kg/ha): 0.0
- Herbicidal effect rating, ECHCG ([7]; 0.063 kg/ha): 0.0
- Herbicidal effect rating, ECHCG ([7]; 0.125 kg/ha): 0.0
- Herbicidal effect rating, ECHCG ([7]; 0.250 kg/ha): 2.0
- Herbicidal effect rating, ZEAMX (ZEA MAYS L.; 0.031 kg/ha): 3.0
- Herbicidal effect rating, ZEAMX (ZEA MAYS L.; 0.063 kg/ha): 3.5
- Herbicidal effect rating, ZEAMX (ZEA MAYS L.; 0.125 kg/ha): 4.0
- Herbicidal effect rating, ZEAMX (ZEA MAYS L.; 0.250 kg/ha): 4.5

— patent EP0745595A1, “3-(3-Aryloxyphenyl)-1-(substituted methyl)-s-triazine-2,4,6-oxo or thiotrione herbicidal agents” (American Cyanamid Company, priority 1995, dated 1996)
